Measured values from US4925870A, “Therapeutic use of proanthocyanidine A2 as a cytoprotective agent” (Inverni Della Beffa SpA, priority 1985, dated 1990).
“Also recorded” adds a separate entry of the source.

Experiments:
[1] = Anti-ulcer activity after i.p. administration on ASA induced gastric ulcers in rats; format: in vivo; settings: for Changes in U.I. in comparison with controls / No. of stomach without lesions / Ulceration index (U.I.) mean: i.p., n = 10
Excerpt: This activity is believed to be a consequence of its healing activity and microcirculation protecting activity.

rat brain = experiment: Rat brain ex vivo anti-lipid peroxidation test
Protocol: (§1) Proanthocyanidine A2 was assayed for anti-lipid peroxidation activity "in vitro" on rat brain homogenate according to the method of Saeed S. A. et al., Biochem. Soc. Trans 9, 442-443, 1981 and on rat hepatic microsomes according to the method of Jha H. C. et al., Biochem. Pharmacol. 34 , 1367-1369, 1985. […] This activity was confirmed on a rat brain "ex vivo" test.

[2] = Healing (cicatrising) activity, general statement (topical and oral route, normal and steroid treated animals); settings: in vivo
rat brain homogenate = experiment: In vitro inhibition of lipid peroxidation (MDA formation) on rat brain homogenate; format: biochemical; settings: for IC50: rat brain homogenate
Protocol: as §1

[3] = Wound healing activity on prednisone treated rats by topical application; format: in vivo
Excerpt: (§2) The triterpene fraction obtained from Centella asiatica (CATS), a well-known cicatrizant or healing agent widely used in some European countries, has been chosen as comparison drug.

[4] = Capillary resistance in rats fed on vitamin P deprived diet; format: in vivo; settings: for Percent increase (capillary resistance) in comparison with controls: n = 8
Protocol: The latter was evaluated by the method of Charlier R. et al., Arch. Int. Physiol. Bioch.

[5] = Acute toxicity in the mouse; settings: for LD50: mouse, in vivo
Protocol: (§3) The acute toxicity of proanthocyanidine A2 was determined in the mouse and rat on administration by the oral and intreperitoneal routes.

rat hepatic microsomes [6] = experiment: In vitro inhibition of lipid peroxidation (MDA formation) on rat hepatic microsomes; format: biochemical; settings: for IC50: in vitro, rat hepatic microsomes + NADPH + Fe^2+ ADP
[7] = Wound healing activity by oral route in rats treated with prednisone; format: in vivo; settings: for Surface after 3 days of administrations (m ± s.e.) / percent variation of surface in comparison with prednisone controls: oral; for percent variation of surface in comparison with prednisone controls: after 3 days
Excerpt: as §2

[8] = Acute toxicity in the rat; settings: in vivo
Protocol: as §3

[9] = Activity on wound scar resistance in normal mice by oral route (force necessary for breaking a cutaneous scar); format: in vivo; settings: n = 20
Excerpt: The method used was that of Sixth et al., Arzneim. Forsch. 18, 1460, 1968.

rat hepatic microsomes [10] = experiment: NADPH consumption by hepatic microsomes; format: biochemical; settings: for IC50: NADPH 500 μM + Fe^2+ 20 μM + ADP 500 μM
[11] = Acute toxicity on topical administration; settings: administered topically

With `Oc1cc(O)c2c(c1)O[C@@]1(c3ccc(O)c(O)c3)Oc3cc(O)c4c(c3[C@@H]2[C@H]1O)O[C@H](c1ccc(O)c(O)c1)[C@H](O)C4` [Proanthocyanidine A2] the “Changes in U.I. in comparison with controls” value (“Changes in U.I. in comparison” for short) ([1]; 100 mg/kg) was -18,4, the “No. of stomach without lesions” value ([1]; 100 mg/kg) was 0 and the “Ulceration index (U.I.) mean” value ([1]; 100 mg/kg) was 39,6. The “Changes in U.I. in comparison” value ([1]; 200 mg/kg) was -28,1, the “No. of stomach without lesions” value ([1]; 200 mg/kg) was 0 and the “Ulceration index (U.I.) mean” value ([1]; 200 mg/kg) was 34,9. The “Changes in U.I. in comparison” value ([1]; 400 mg/kg) was -40,8, the “No. of stomach without lesions” value ([1]; 400 mg/kg) was 0 and the “Ulceration index (U.I.) mean” value ([1]; 400 mg/kg) was 28,7. The “anti-ulcer activity (in words)” value ([1]; ulcer protection tests) was “active in ulcer protection tests; also recorded: particularly active as an anti-ulcer agent”, the “anti-lipid peroxidation activity ex vivo (in words)” value (rat brain) was “confirmed” and the “healing activity (in words)” value [2] was “higher than that of known drugs employed in this therapeutic field; also recorded: manifests itself by the topical and also oral route both in normal animals and in animals in which the healing process has been slowed down by treatment with steroids; also recorded: superior to that of known drugs employed in this field”. The “anti-lipid peroxidation activity (in words)” value (rat brain homogenate) was “strong anti-lipid peroxidation activity”, the IC50 (rat brain homogenate; in vitro) was 450 nM and the “inhibition of MDA (malondialdehyde) formation (in words)” value (rat brain homogenate; in vitro, rat brain homogenate and rat hepatic microsomes) was “strongly inhibited”. For the same molecule, the “Wound area (m ± s.e.)” value ([3]; concentration 1%, day 0 (baseline), n = 10) was 324.55 ± 3.77 mm^2, the “percent variation of wound area in comparison with prednisone controls” value (from here on “percent variation of wound area”) ([3]; concentration 1%, day 1) was -8.17% and the “Wound area (m ± s.e.)” value ([3]; concentration 1%, day 1, n = 10) was 317.39 ± 3.37 mm^2. For the same molecule, the “percent variation of wound area” value ([3]; concentration 1%, day 2) was -9.70%, the “Wound area (m ± s.e.)” value ([3]; concentration 1%, day 2, n = 10) was 315.04 ± 3.58 mm^2 and the “percent variation of wound area” value ([3]; concentration 1%, day 3) was -9.60%. For the same molecule, the “Wound area (m ± s.e.)” value ([3]; concentration 1%, day 3, n = 10) was 308.01 ± 3.77 mm^2, the “Wound area (m ± s.e.)” value ([3]; concentration 2%, day 0 (baseline), n = 10) was 327.71 ± 2.92 mm^2 and the “percent variation of wound area” value ([3]; concentration 2%, day 1) was -8.17%. The “Wound area (m ± s.e.)” value ([3]; concentration 2%, day 1, n = 10) was 317.39 ± 3.36 mm^2, the “percent variation of wound area” value ([3]; concentration 2%, day 2) was -12.38% and the “Wound area (m ± s.e.)” value ([3]; concentration 2%, day 2, n = 10) was 305.69 ± 3.89 mm^2. The “percent variation of wound area” value ([3]; concentration 2%, day 3) was -15.88%, the “Wound area (m ± s.e.)” value ([3]; concentration 2%, day 3, n = 10) was 286.62 ± 3.74 mm^2 and the “vasotropic / venotonic activity (in words)” value ([4]; capillary permeability and resistance) was “possesses a vasotropic activity in terms of modification of capillary permeability and resistance; also recorded: normalizing conditions of impaired capillary permeability and capillary fragility”. For the same molecule, the “Percent increase (capillary resistance) in comparison with controls” value (from here on “Percent increase (capillary resistance)”) ([4]; oral 200 mg/kg × 3 days, 0 hours after third administration) was 5%, the “Percent increase (capillary resistance)” value ([4]; oral 200 mg/kg × 3 days, 2 hours after third administration) was 9% and the “Percent increase (capillary resistance)” value ([4]; oral 200 mg/kg × 3 days, 4 hours after third administration) was 9%. For the same molecule, the “Percent increase (capillary resistance)” value ([4]; oral 200 mg/kg × 3 days, 6 hours after third administration) was 6%, the “Percent increase (capillary resistance)” value ([4]; oral 400 mg/kg × 3 days, 0 hours after third administration) was 7% and the “Percent increase (capillary resistance)” value ([4]; oral 400 mg/kg × 3 days, 2 hours after third administration) was 15%. The “Percent increase (capillary resistance)” value ([4]; oral 400 mg/kg × 3 days, 4 hours after third administration) was 14%, the “Percent increase (capillary resistance)” value ([4]; oral 400 mg/kg × 3 days, 6 hours after third administration) was 13% and the LD50 ([5]; ip) was over 6000 mg/kg. For the same molecule, the LD50 ([5]; po) was over 6000 mg/kg, the “acute toxicity (in words)” value ([5]; oral and intraperitoneal routes, mouse and rat) was “does not exhibit significant acute toxicity” and the “column headed by drawing 2 under MDA formation (ratio of hepatic microsomes IC50 to brain homogenate IC50, by arithmetic)” value (rat hepatic microsomes [6]) was 1.8. The IC50 (rat hepatic microsomes [6]) was 800 nM, the “Surface after 3 days of administrations (m ± s.e.)” value (shortened to “Surface after 3 days”) ([7]; 50 mg/kg) was 280.47 ± 7.01 mm^2 and the “percent variation of surface in comparison with prednisone controls” value (shortened to “percent variation of surface”) ([7]; 50 mg/kg) was -9.15%. The “Surface after 3 days” value ([7]; 100 mg/kg) was 271.82 ± 5.35 mm^2, the “percent variation of surface” value ([7]; 100 mg/kg) was -11.95% and the “Surface after 3 days” value ([7]; 200 mg/kg) was 265.88 ± 4.38 mm^2. The “percent variation of surface” value ([7]; 200 mg/kg) was -13.87%, the “Surface after 3 days” value ([7]; 400 mg/kg) was 259.99 ± 7.72 mm^2 and the “percent variation of surface” value ([7]; 400 mg/kg) was -15.78%. For the same molecule, the “reduction of the area of wounds (in words)” value ([7]; rats, Tables 2 and 3) was “favourable effect”, the LD50 ([8]; ip) was over 3000 mg/kg and the LD50 ([8]; po) was over 6000 mg/kg. The “Percent increase in comparison (with controls)” value ([9]; 100 mg/kg) was “+32.5%”, the “Tension (m + S.E.)” value ([9]; 100 mg/kg) was 104.11 + 4.25 g and the “Percent increase in comparison (with controls)” value ([9]; 200 mg/kg) was “+46.6%”. The “Tension (m + S.E.)” value ([9]; 200 mg/kg) was 115.12 + 4.90 g, the IC50 (rat hepatic microsomes [10]) was 14000 nM and the “column headed by drawing 3 (hepatic microsomes) (ratio of NADPH consumption IC50 to MDA formation IC50, by arithmetic)” value (rat hepatic microsomes [10]; hepatic microsomes) was 17.5. For the same molecule, the “inhibiting activity on NADPH consumption (in words)” value (rat hepatic microsomes [10]; in vitro, hepatic microsomes) was “low inhibiting activity” and the “acute toxicity (in words)” value [11] was “negligable acute toxicity”.
In the case of `O=c1c(O)c(-c2ccc(O)c(O)c2)oc2cc(O)cc(O)c12` [Quercetin, reference compound], the IC50 (rat brain homogenate; in vitro) is reported as 900 nM, the “column headed by drawing 2 under MDA formation (ratio of hepatic microsomes IC50 to brain homogenate IC50, by arithmetic)” value (rat hepatic microsomes [6]) is reported as 5.7 and the IC50 (rat hepatic microsomes [6]) is reported as 5100 nM. The IC50 (rat hepatic microsomes [10]) was 17000 nM and the “column headed by drawing 3 (hepatic microsomes) (ratio of NADPH consumption IC50 to MDA formation IC50, by arithmetic)” value (rat hepatic microsomes [10]; hepatic microsomes) was 3.3.
